Experimental data taken from ChEMBL document CHEMBL4665747, “Glycosides and Glycoconjugates of the Diterpenoid Isosteviol with a 1,2,3-Triazolyl Moiety: Synthesis and Cytotoxicity Evaluation” (J Nat Prod, 2020).
Activity calls are given as the source filed them. The rule behind the calls is not given here.

Assays:
MCF7 = test: Cytotoxicity against human MCF7 cells assessed as reduction in cell viability after 24 hrs by DAPI staining-based fluorescence assay; type: functional; conditions: MCF7, 24 h
[1] = Selectivity index, ratio of IC50 for human chang liver cells to IC50 for human HelaM cells
WI-38 = test: Cytotoxicity against human WI-38 cells assessed as reduction in cell viability after 24 hrs by DAPI staining-based fluorescence assay; conditions: WI-38, 24 h
[2] = Cytotoxicity against human Chang liver cells assessed as reduction in cell viability after 24 hrs by DAPI staining-based fluorescence assay
M-HeLa [3] = test: Cytotoxicity against human HelaM cells assessed as reduction in cell viability after 24 hrs by DAPI staining-based fluorescence assay; type: functional
M-HeLa [4] = test: Induction of mitochondrial membrane potential loss in human HelaM cells assessed as cell population with intact mitochondrial membrane potential at 25 uM by JC-10 staining-based flow cytometric analysis (reference value: 77.48 %); type: functional
M-HeLa [5] = test: Induction of apoptosis in human HelaM cells assessed as increase in Bad level at 10 uM incubated for 24 hrs; type: functional, cell-based
M-HeLa [6] = test: Induction of apoptosis in human HelaM cells assessed as increase in Akt level at 10 uM incubated for 24 hrs; type: functional, cell-based
M-HeLa [7] = test: Induction of apoptosis in human HelaM cells assessed as increase in p53 level at 10 uM incubated for 24 hrs; type: functional, cell-based
M-HeLa [8] = test: Induction of mitochondrial membrane potential loss in human HelaM cells assessed as cell population with mitochondrial membrane potential collapse at 10 uM by JC-10 staining-based flow cytometric analysis (reference value: 22.17 %); type: functional
M-HeLa [9] = test: Induction of apoptosis in human HelaM cells assessed as early apoptotic cells at 10 uM after 24 hrs by V-FITC/propidium iodide staining-based flow cytometric analysis (reference value: 1.5 %); type: functional
M-HeLa [10] = test: Induction of apoptosis in human HelaM cells assessed as late apoptotic cells at 25 uM after 24 hrs by V-FITC/propidium iodide staining-based flow cytometric analysis (reference value: 0.62 %); type: functional
M-HeLa [11] = test: Induction of mitochondrial membrane potential loss in human HelaM cells assessed as cell population with intact mitochondrial membrane potential at 10 uM by JC-10 staining-based flow cytometric analysis (reference value: 77.48 %); type: functional
M-HeLa [12] = test: Induction of apoptosis in human HelaM cells assessed as early apoptotic cells at 25 uM after 24 hrs by V-FITC/propidium iodide staining-based flow cytometric analysis (reference value: 1.5 %); type: functional
M-HeLa [13] = test: Induction of apoptosis in human HelaM cells assessed as viable cells at 10 uM after 24 hrs by V-FITC/propidium iodide staining-based flow cytometric analysis (reference value: 93.33 %); type: functional; conditions: read-out: Activity
M-HeLa [14] = test: Induction of mitochondrial membrane potential loss in human HelaM cells assessed as cell population with mitochondrial membrane potential collapse at 25 uM by JC-10 staining-based flow cytometric analysis (reference value: 22.17 %); type: functional
M-HeLa [15] = test: Induction of apoptosis in human HelaM cells assessed as viable cells at 25 uM after 24 hrs by V-FITC/propidium iodide staining-based flow cytometric analysis (reference value: 93.33 %); type: functional; conditions: read-out: Activity
M-HeLa [16] = test: Induction of apoptosis in human HelaM cells assessed as necrotic cells at 25 uM after 24 hrs by V-FITC/propidium iodide staining-based flow cytometric analysis (reference value: 4.55 %); type: functional
M-HeLa [17] = test: Induction of apoptosis in human HelaM cells assessed as necrotic cells at 10 uM after 24 hrs by V-FITC/propidium iodide staining-based flow cytometric analysis (reference value: 4.55 %); type: functional
M-HeLa [18] = test: Induction of apoptosis in human HelaM cells assessed as increase in Bcl2 level at 10 uM incubated for 24 hrs; type: functional, cell-based
M-HeLa [19] = test: Induction of apoptosis in human HelaM cells assessed as late apoptotic cells at 10 uM after 24 hrs by V-FITC/propidium iodide staining-based flow cytometric analysis (reference value: 0.62 %); type: functional
M-HeLa [20] = test: Induction of apoptosis in human HelaM cells assessed as increase in caspase-8 level at 10 uM incubated for 24 hrs; type: functional, cell-based
M-HeLa [21] = test: Induction of apoptosis in human HelaM cells assessed as increase in caspase-9 level at 10 uM incubated for 24 hrs; type: functional, cell-based
M-HeLa [22] = test: Induction of apoptosis in human HelaM cells assessed as increase in JNK level at 10 uM incubated for 24 hrs; type: functional, cell-based

Compound | IC50 (MCF7) | Ratio IC50 [1] | IC50 (WI-38) | IC50 [2] | IC50 (M-HeLa [3]) | Activity (M-HeLa [4]) | Activity (M-HeLa [8]) | Activity (M-HeLa [9]) | Activity (M-HeLa [10]) | Activity (M-HeLa [11]) | Activity (M-HeLa [12]) | viability at 10 µM (M-HeLa [13]) | Activity (M-HeLa [14]) | viability at 25 µM (M-HeLa [15]) | Activity (M-HeLa [16]) | Activity (M-HeLa [17]) | Activity (M-HeLa [19]) | further results
CC(=O)OC[C@H]1O[C@@H](n2cc(COC(=O)[C@]3(C)CCC[C@@]4(C)[C@@H]5CC[C@@]6(C)C[C@]5(CC[C@@H]43)CC6=O)nn2)[C@H](OC(C)=O)[C@@H](OC(C)=O)[C@@H]1OC(C)=O | > 10 µM | 8.5 | 36 µM | 68.3 µM | 8000 nM | – | – | – | – | – | – | – | – | – | – | – | – | –
CC(=O)OC[C@H]1O[C@@H](n2cc(COC(=O)[C@]3(C)CCC[C@@]4(C)[C@@H]5CC[C@@]6(C)C[C@]5(CC[C@@H]43)CC6=O)nn2)[C@H](OC(C)=O)[C@@H](OC(C)=O)[C@H]1OC(C)=O | > 10 µM | >56 | 69.7 µM | > 100 µM | 1800 nM | 15.35% | 40.74% | 7.95% | 11.5% | 59.16% | 9.53% | 82% | 84.65% | 77.7% | 1.26% | 0.91% | 9.09% | Activity (M-HeLa [5]): Active; Activity (M-HeLa [6]): Active; Activity (M-HeLa [7]): Active; Activity (M-HeLa [18]): Active; Activity (M-HeLa [20]): Active; Activity (M-HeLa [21]): Active; Activity (M-HeLa [22]): Active
CC(=O)O[C@@H]1[C@H](OC(C)=O)[C@H](OC(C)=O)CO[C@H]1n1cc(COC(=O)[C@]2(C)CCC[C@@]3(C)[C@@H]4CC[C@@]5(C)C[C@]4(CC[C@@H]32)CC5=O)nn1 | > 10 µM | >59 | 40 µM | > 100 µM | 1700 nM | 13.46% | 40.23% | 9.53% | 11.59% | 59.62% | 8.57% | 81.9% | 86.44% | 79.2% | 0.66% | 0.34% | 8.21% | –
COc1cccc2c1C(=O)c1c(O)c3c(c(O)c1C2=O)C[C@@](O)(C(=O)CO)C[C@@H]3O[C@H]1C[C@H](N)[C@H](O)[C@H](C)O1 [DOXORUBICIN] | – | – | – | 3 µM | – | – | – | – | – | – | – | – | – | – | – | – | – | –
CC(=O)OC[C@H]1O[C@@H](n2cc(COC(=O)[C@]3(C)CCC[C@@]4(C)[C@@H]5CC[C@@]6(C)C[C@]5(CC[C@@H]43)CC6=O)nn2)[C@H](OC(C)=O)[C@@H]1OC(C)=O | > 10 µM | >53 | > 100 µM | > 100 µM | 1900 nM | 9.86% | 44.73% | 11.71% | 23.66% | 55.17% | 22.44% | 67.3% | 90.09% | 53.9% | 0% | 0.03% | 20.94% | –
